Values of other authors, collected in patent publication US6908924B2, “N4-acylcytosine-1,3-dioxolane nucleosides for treatment of viral infections” (Pharmasset, Inc., priority 2001, dated 2005).
pKi: −log10 of the molar value.

Columns and labels:
[1] = target: HIV reverse transcriptase (HIV-RT) (Human immunodeficiency virus type 1 group M subtype B, UniProt P04585)
HIV-1 = conditions: as a reverse transcriptase inhibitor (RTI)

| SMILES | pKi [1] | inhibition of HIV-1 replication in vitro (HIV-1) |
| --- | --- | --- |
| Nc1nc2c(ncn2[C@H]2CO[C@@H](COP(=O)(O)OP(=O)(O)OP(=O)(O)O)O2)c(=O)[nH]1 [DXG-TP] | 7.72 | – |
| Nc1nc(N)c2ncn([C@H]3CO[C@@H](CO)O3)c2n1 [DAPD, (−)-(2R,4R)-2-amino-9-[(2-hydroxymethyl)-1,3-dioxolan-4-yl]adenine] | – | selective inhibitor |
